{"source": "patent US20100137440A1", "about": "“LYSINE RIBOSWITCHES, STRUCTURE-BASED COMPOUND DESIGN WITH LYSINE RIBOSWITCHES, AND METHODS AND COMPOSITIONS FOR USE OF AND WITH LYSINE RIBOSWITCHES” (Yale University, priority 2006, published 2010)", "key": {"[1]": {"test_system": "179-nucleotide receptor domain (179 lysC) of the lysC lysine riboswitch", "experiment": "In-line probing assay, ligand binding to 179 lysC", "set-up": "species or system B. subtilis", "settings": "for binding to 179 lysC / lysine aptamer (in words): in vitro"}, "B. subtilis 168 (1A1)": {"test_system": "B. subtilis 168 (1A1)", "experiment": "Antibacterial activity assay (growth curves, MIC) in chemically defined minimal media", "assay_type": "cell-based", "settings": "for bacterial growth in minimal medium: 100 μM compound, chemically-defined minimal medium; for complete inhibition of bacterial growth for 24 h: minimal medium"}, "[2]": {"test_system": "lysC lysine riboswitch upstream of lacZ reporter gene", "experiment": "In vivo reporter gene (β-galactosidase) expression assay, wild-type lysC riboswitch", "assay_type": "cell-based, B. subtilis", "settings": "for repression of β-galactosidase reporter gene expression controlled by lysC riboswitch: 3 h growth in presence of compound (5 mM, FIG. 3c); for reporter gene expression at the compound's MIC: at respective MICs"}, "[3]": {"test_system": "B. subtilis 168 strain 1A1 (WT)", "experiment": "Sporulation assay, WT strain", "settings": "for % Viable spore formation, WT: spores after heat shock relative to CFU before heat shock"}, "B. subtilis M2 strain": {"test_system": "B. subtilis M2 strain", "experiment": "Sporulation assay, M2 strain", "settings": "2 mM analog; spores after heat shock relative to CFU before heat shock"}, "[4]": {"test_system": "B. subtilis lysine auxotroph strain 1A40", "assay_type": "cell-based", "settings": "1 mM compound, 3 h, minimal media"}, "[5]": {"test_system": "resistant B. subtilis strains (M1, M2)", "experiment": "MIC toward L-4-oxalysine-resistant strains (M1, M2)", "assay_type": "cell-based", "settings": "for effect of M1 and M2 mutations on susceptibility: M1 and M2 strains"}, "[6]": {"test_system": "lysC riboswitch with the M1 or M2 mutation upstream of β-galactosidase reporter", "experiment": "Reporter gene (β-galactosidase) expression assay, M1 or M2 riboswitch constructs", "assay_type": "cell-based, B. subtilis", "settings": "high compound concentrations (lysine as high as 5 mM)"}, "[7]": {"test_system": "179-nucleotide receptor domain (179 lysC) of the lysC lysine riboswitch", "settings": "Sudarsan 2006; cited from earlier work"}, "[8]": {"test_system": "lysC lysine riboswitch upstream of lacZ reporter gene", "settings": "Sudarsan 2006; cited from earlier work"}, "B. cereus": {"test_system": "B. cereus", "assay_type": "cell-based, Bacillus cereus", "settings": "minimal medium"}}, "note": "Entries after “also recorded” stand apart in the source; their conditions may differ."}
{"smiles": "Nc1ccccc1C(=O)C[C@H](N)C(=O)O", "note": "[Compound 10, L-2-amino-3-(2-aminobenzoyl)-propionic acid]", "values": [{"measurement": "binding to 179 lysC / lysine aptamer (in words)", "setting": "[1]", "value": "poor affinities"}]}
{"smiles": "NCC(=O)CCC(N)C(=O)O", "note": "(racemic) [Compound 8, DL-5-oxolysine]", "values": [{"measurement": "binding to 179 lysC / lysine aptamer (in words)", "setting": "[1]", "value": "poor affinity; also recorded: rejected by the lysine aptamer"}, {"measurement": "bacterial growth in minimal medium", "setting": "B. subtilis 168 (1A1)", "value": "modest level of growth inhibition activity"}, {"measurement": "repression of β-galactosidase reporter gene expression controlled by lysC riboswitch", "setting": "[2]", "value": "do not repress expression"}, {"measurement": "formation of viable spores (in words)", "setting": "[3]", "value": "do not"}, {"measurement": "% Viable spore formation, WT", "setting": "[3]; 2 mM analog", "value": 47, "unit": "%"}, {"measurement": "% Viable spore formation, M2", "setting": "B. subtilis M2 strain", "value": 9, "unit": "%"}]}
{"smiles": "CN[C@@H](CCCCN)C(=O)O", "note": "[Compound 11, L-N^2-methyllysine]", "values": [{"measurement": "binding to 179 lysC / lysine aptamer (in words)", "setting": "[1]", "value": "does not tolerate modifications at N2"}]}
{"smiles": "NCCCC[C@H](N)C(=O)O", "note": "[lysine, L-lysine]", "values": [{"measurement": "Kd", "setting": "[1]", "value": 360, "unit": "nM"}, {"measurement": "growth of lysine auxotroph strain 1A40", "setting": "[4]", "value": "support growth"}, {"measurement": "repression of β-galactosidase reporter gene expression controlled by lysC riboswitch", "setting": "[2]", "value": "strongly repressed"}]}
{"smiles": "NCCOC[C@H](N)C(=O)O", "note": "[Compound 2, L-4-oxalysine]", "values": [{"measurement": "binding to 179 lysC / lysine aptamer (in words)", "setting": "[1]", "value": "bind well"}, {"measurement": "complete inhibition of bacterial growth for 24 h", "setting": "B. subtilis 168 (1A1)", "value": "completely inhibit bacterial growth"}, {"measurement": "repression of β-galactosidase reporter gene expression controlled by lysC riboswitch", "setting": "[2]", "value": "significantly repress"}, {"measurement": "reporter gene expression at the compound's MIC", "setting": "[2]", "value": "completely repress"}, {"measurement": "increase of MIC in resistant colonies", "setting": "[5]; 24 colonies isolated by serial passage, versus wild type", "value": "at least 9 fold"}, {"measurement": "β-galactosidase expression from M1 or M2 constructs", "setting": "[6]", "value": "fully active β-galactosidase is still expressed"}, {"measurement": "formation of viable spores (in words)", "setting": "[3]", "value": "inhibit the formation of viable spores"}, {"measurement": "% Viable spore formation, WT", "setting": "[3]; 0.2 mM analog", "value": 71, "unit": "%"}, {"measurement": "% Viable spore formation, WT", "setting": "[3]; 2 mM analog", "value": 6, "unit": "%"}, {"measurement": "% Viable spore formation, M2", "setting": "B. subtilis M2 strain", "value": 65, "unit": "%"}]}
{"smiles": "NC/C=C/CC(N)C(=O)O", "note": "(racemic) [Compound 4, DL-trans-2,6-diamino-4-hexenoic acid]", "values": [{"measurement": "binding to 179 lysC / lysine aptamer (in words)", "setting": "[1]", "value": "bind well"}, {"measurement": "complete inhibition of bacterial growth for 24 h", "setting": "B. subtilis 168 (1A1)", "value": "completely inhibit bacterial growth"}, {"measurement": "repression of β-galactosidase reporter gene expression controlled by lysC riboswitch", "setting": "[2]", "value": "significantly repress"}, {"measurement": "effect of M1 and M2 mutations on susceptibility", "setting": "[5]", "value": "confer resistance"}]}
{"smiles": "NCC(O)CC[C@H](N)C(=O)O", "note": "(stereo partly shown) [5-hydroxylysine]", "values": [{"measurement": "binding to the lysC riboswitch (previous report)", "setting": "[7]", "value": "fails to bind"}]}
{"smiles": "NCCSC[C@H](N)C(=O)O", "note": "[AEC, L-aminoethylcysteine]", "values": [{"measurement": "binding to the lysC riboswitch (previous report)", "setting": "[7]", "value": "bind well; also recorded: binds to the lysC riboswitch"}, {"measurement": "repression of lysC-regulated reporter gene (previous report)", "setting": "[8]", "value": "represses the expression"}]}
{"smiles": "CC(=N)NCCCC[C@H](N)C(=O)O", "note": "[Compound 7, L-N^6-1-iminoethyllysine]", "values": [{"measurement": "binding to 179 lysC / lysine aptamer (in words)", "setting": "[1]", "value": "strong binding"}, {"measurement": "bacterial growth in minimal medium", "setting": "B. subtilis 168 (1A1)", "value": "fails to inhibit cell growth"}, {"measurement": "repression of β-galactosidase reporter gene expression controlled by lysC riboswitch", "setting": "[2]", "value": "does not repress"}]}
{"smiles": "N=C(N)NCCCC[C@H](N)C(=O)O", "note": "[Compound 3, L-homoarginine]", "values": [{"measurement": "binding to 179 lysC / lysine aptamer (in words)", "setting": "[1]", "value": "binds strongly"}, {"measurement": "growth of lysine auxotroph strain 1A40", "setting": "[4]", "value": "supports the growth; also recorded: support growth"}]}
{"smiles": "NCCS(=O)(=O)C[C@H](N)C(=O)O", "note": "[Compound 1, L-3-[(2-aminoethyl)-sulfonyl]-alanine]", "values": [{"measurement": "binding to 179 lysC / lysine aptamer (in words)", "setting": "[1]", "value": "bind well"}, {"measurement": "complete inhibition of bacterial growth for 24 h", "setting": "B. subtilis 168 (1A1)", "value": "completely inhibit bacterial growth"}, {"measurement": "repression of β-galactosidase reporter gene expression controlled by lysC riboswitch", "setting": "[2]", "value": "significantly repress"}, {"measurement": "reporter gene expression at the compound's MIC", "setting": "[2]", "value": "completely repress"}, {"measurement": "effect of M1 and M2 mutations on susceptibility", "setting": "[5]", "value": "confer resistance"}, {"measurement": "growth inhibition of B. cereus relative to B. subtilis", "setting": "B. cereus", "value": 13, "unit": "fold"}, {"measurement": "β-galactosidase expression from M1 or M2 constructs", "setting": "[6]", "value": "fully active β-galactosidase is still expressed"}, {"measurement": "formation of viable spores (in words)", "setting": "[3]", "value": "inhibit the formation of viable spores"}, {"measurement": "% Viable spore formation, WT", "setting": "[3]; 0.2 mM analog", "value": 7, "unit": "%"}, {"measurement": "% Viable spore formation, WT", "setting": "[3]; 2 mM analog", "value": 0, "unit": "%"}, {"measurement": "% Viable spore formation, M2", "setting": "B. subtilis M2 strain", "value": 17, "unit": "%"}]}
{"smiles": "CC(=O)N[C@@H](CCCCN)C(=O)O", "note": "[Compound 5, L-N^2-acetyllysine]", "values": [{"measurement": "binding to 179 lysC / lysine aptamer (in words)", "setting": "[1]", "value": "does not tolerate modifications at N2"}]}
{"smiles": "C[N+](C)(C)CCCC[C@H](N)C(=O)O", "note": "[Compound 12, L-N^6-trimethyllysine]", "values": [{"measurement": "binding to 179 lysC / lysine aptamer (in words)", "setting": "[1]", "value": "no binding is observed"}]}
{"smiles": "Nc1cc(C[C@H](N)C(=O)O)ccc1O", "note": "[Compound 9, L-3-aminotyrosine]", "values": [{"measurement": "binding to 179 lysC / lysine aptamer (in words)", "setting": "[1]", "value": "poor affinities; also recorded: rejected by the lysine aptamer"}, {"measurement": "bacterial growth in minimal medium", "setting": "B. subtilis 168 (1A1)", "value": "modest level of growth inhibition activity"}, {"measurement": "repression of β-galactosidase reporter gene expression controlled by lysC riboswitch", "setting": "[2]", "value": "do not repress expression"}, {"measurement": "formation of viable spores (in words)", "setting": "[3]", "value": "do not"}, {"measurement": "% Viable spore formation, WT", "setting": "[3]; 2 mM analog", "value": 75, "unit": "%"}, {"measurement": "% Viable spore formation, M2", "setting": "B. subtilis M2 strain", "value": 75, "unit": "%"}]}
